# Test results published in patent US8492341B2, “Amyloid-β binding peptides” (Alzyme Pty Ltd., priority 2006, dated 2013).
# Square brackets hold non-standard residues; d marks the D form.
# Experiments:
# [1] = biological target: Aβ (Homo sapiens, UniProt P05067); experiment: Copper-induced Aβ oligomer generation (SDS-PAGE, WO2 immunoblot); assay type: biochemical; settings: Aβ 5 uM, Cu+2 25 μM, 0-1000 μM peptide, 37 C, 24 hours; vs reverse peptide control
# Method: Incubation of Aβ with copper generates cross-linked oligomeric species (Atwood et al., 2000: Cell Mol Biol, 46: 777-783; Atwood et al., 2004: Biochemistry, 43: 560-568). In this experiment, Aβ (5 uM) is incubated with Cu+2 (25 μM) and 0-1000 μM of the modified peptides at 37 C for 24 hours. After the incubation period, 20 ng is loaded onto an SDS-PAGE gel and immunoblotted with WO2 antibody. Compared to the reverse peptide control, all the modified peptides inhibited the generation of Aβ oligomers at various concentration.
# [2] = test system: human Aβ42; experiment: MTS cell viability assay of MP2 analogues, cells treated with human Aβ42 (20 μM); assay type: cell-based; settings: peptide 400 μM
# Method: FIG. 7 illustrates the effect of various peptide analogues of the peptide analogue of SEQ ID NO:2 on cell viability associated with human Aβ1-42. Cells were treated with human Aβ42 peptide (20 μM) in the absence or presence of increasing doses of MP2, MP4, MP5 or MP6 (n=6, for each peptide). Cell viability was assessed by the MTS assay.
# Cells were treated with human Aβ42 peptide (20 μM) in the absence or presence of increasing doses of MP2, MP4, MP5 or MP6 (n=6, for each peptide). Cell viability was assessed by the MTS assay.
# [3] = test system: M17 Neuroblastoma cells; experiment: MTS cell viability assay, cell death induced by human Aβ1-42 (40 μM); assay type: cell-based; settings: for reduction of cell death associated with human Aβ1-42: Aβ1-42 40 μM
# Method: M17 Neuroblastoma cells were seeded in a 48 well plate at a density of 50,000 cells per well. The plate was incubated for 24 hours at 37° C. in media (OPTI-MEM) containing 10% FCS. The next day the cells were treated with human Aβ1-42 (40 μM) in the presence or absence of the peptides 15merTNP or peptide analogue MP2 (FIG. 2). The peptides were provided at concentrations ranging from 20-400 μM prepared in Neuro basal media containing B27 supplement without antioxidants. Following incubation (4 days at 37° C.), cell viability was assessed using the CellTiter 96® AQueous One Solution cell proliferation assay (MTS; Promega, Wis., USA) as per manufactures instructions. Briefly, 200 μl of MTS reagent (1/10 dilution) was added directly to the culture wells and the plate incubated for 3 hours at 37° C. Following incubation, 150 μl of the solution was transferred to a 96 well plate and the absorbance is determined spectrophotometrically at 490 nm.
# Similar to the MTT assay, the MTS assay is a colorimetric method for determining the number of viable cells in proliferation or cytotoxicity assays. The principle of the MTS assay is the same as the MTT assay, except for the tetrazolium compound that is bio-reduced by the mitochondria of the cells, forming a coloured formazan product that is soluble (rather than insoluble for the MTT assay) in tissue culture medium. This conversion is accomplished by NADPH or NADH produced by dehydrogenase enzymes in metabolically active cells: Berridge M V. And Tan A. S. (1993) Characterisation of the cellular reduction of 3-(4,5-dimethylthiazol-2-yl)-2,5-diphenyltetrazolium bromide (MTT): Subcellular localisation, substrate dependence and involvement of mitochondrial electron transport in MTT reduction. Arch. Biochem. Biophys. 303, 474-82.
# The effect of human Aβ1-42 (40 μM) on cell viability was determined in triplicate in each of the 10 MTS assays (i.e. n=30) performed in this study. All data are presented as means±SEM.
# The effect of peptide analogue MP2 to protect against human Aβ42-induced toxicity was then determined using the MTS assay in triplicate in two separate experiments for all doses (i.e. n=6), unless otherwise specified. The effectiveness of MP2 was compared against the 15merTNP.
# [4] = biological target: T1, human Aβ1-42 (Homo sapiens, UniProt P05067); experiment: DCF fluorescence assay of H2O2 production (SOD-like activity) by human Aβ1-42; assay type: biochemical; settings: 200 nM peptide, Aβ1-42 200 nM
# T1 sequence (P05067 672-713): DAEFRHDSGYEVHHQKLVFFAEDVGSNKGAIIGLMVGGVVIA
# Method: The three candidate peptides (15merTNP, 6merPLP and 6merMTM) were examined to determine whether they could attenuate Aβ's SOD-like activity in vitro. A DCF fluorescence assay was used to assess the efficacy of these peptides on altering the production of physiological (brain) concentrations (200 nM) of human Aβ1-42.
# Aβ species were prepared and the assay run as described previously (i.e. Aβ1-42 at 200 nM and Copper and Dopamine concentrations remain unchanged). Peptide analogue MP2 (SEQ ID NO:2) was added to Aβ1-42+Cu solutions at ratios ranging from 0.005:1 to 10.0:1 (i.e. a ration of 0.005:1 would contain 1 nM of respective peptide). The peptide was dissolved in PBS pH7.5. The effect of MP2 on H2O2 production by human Aβ1-42 was determined in triplicate in three separate experiments (i.e. n=9) for doses ranging from 100 to 2000 nM (FIG. 1). These were compared against the level of H2O2 produced by human Aβ1-42 [test peptide analogue MP2+positive control peptide 15merTNP; three experiments done in triplicate, […]]. All data are presented as means±SEM.
# For all assays run, the 15merTNP peptide (SEQ ID NO: 3), was included as a positive control for the assay and for comparing its activity with that of the modelled peptide analogue MP2. The effect of 15merTNP (200 nM) on H2O2 production by human Aβ1-42, was determined in triplicate in each of the 12 DCF assays (i.e. n=36) performed in this study.
# [5] = In vitro peptide stability in 10% rodent brain homogenate; assay type: in vitro ADME, rat; settings: 10% brain homogenate, 37° C.
# Method: For the peptide stability assay in vitro, both 15merTNP and peptide analogue MP2 were incubated separately with fresh 10% rodent brain homogenate to model degradation in tissues. In order to create a physiological dose of peptide in the in vitro assay, both radioactive (^3H-labelled; hot) and non-radioactive (cold) peptides were combined in a set ratio. Cold peptide was added at a dose of […] per ml of 10% brain homogenate. Hot peptide was added at a dose of 250 μCi per ml 10% brain homogenate. Following the addition of hot and cold peptide; the homogenate was vortexed and incubated for different time points. The reaction was stopped by adding complete protease inhibitor cocktail and the samples analysed.
# The biological stability of the peptides was evaluated by incubating them (90 nmol) in fresh 10% rodent brain homogenate for different times at 37° C. The amount of intact peptide was estimated by running the supernatant of the homogenate on a 16% Tricine gel to separate peptide that had not had its amino acid sequence degraded. FIG. 3 illustrates the relative stability of 15merTNP and peptide analogue MP2 over two hours run on a 16% Tricine gel from time 0-120 min with samples run in duplicate. The values correspond to the in vitro half-life, which is defined as the time needed for 50% degradation of the peptide.
# [6] = parameters: species or system mice (129×1 strain); settings: mouse, in vivo
# Method: Another essential requirement of drug development is the ability of the peptide to cross the BBB and impact on targeted tissue. To measure the ability of 15merTNP and peptide analogue MP2 to cross the BBB, intracerebroventricular (i.c.v) delivery was assessed. The use of i.c.v injections on animal models allows for high doses to be delivered straight to the ventricular spaces where it can cross the parenchyma layer to the brain matter.
# For i.c.v injections, control mice (129×1 strain) were anesthetized with intraperitoneal ketamine/xylazine at a dose of 10 ml/kg and then administered with 200 μg of either peptide (90 nmol). Both radioactive (^3H-labelled; hot) and non-radioactive (cold) was used to allow physiological doses of peptide to be delivered.
# To determine whether the peptides had effectively penetrated into the brain parenchyma, a capillary depletion experiment was performed. After 25 min post injection the animal was sacrificed and the brain removed. This was homogenized and centrifuged for 10 min at 13000 rpm at 4° C. resulting in a supernatant containing predominately radioactivity from the cortex and a pellet with radioactivity from the capillaries and endothelium. A comparison of radioactivity in each sample was conducted to assess percentage of peptide movement into the cortex. The amount of radioactivity in the capillary pellet of mice that were perfused and not perfused with saline solution was compared to determine the percentage of peptide bound to the luminal surface of the capillaries and sequestered by brain endothelial cells.
# A detailed necropsy was performed on each animal following perfusion to thoroughly assess peptide movement throughout peripheral organs, central nervous tissue and blood. […] Thus the concentration of labelled tritium could be measured per mass of sample and using this and the known ratio of non-labelled peptide present, the concentration of total peptide could be determined.
# The pharmacokinetic profile of peptide analogue MP2 over four time points, post i.c.v injection into the CNS was determined. […]
# [7] = biological target: T1, human Aβ1-42; settings: DCF fluorescence assay, 200 nM human Aβ1-42; earlier work PCT/AU02/01754; cited from earlier work
# Chain of Aβ (P05067 672-713 limits assumed): as the sequence (P05067 672-713) above
substance,measurement,setting,value
Ac-Arg-Thr-Pro-Gln-Met-Leu-Lys-NH2 (Ac-RTPQMLK-NH2) [MP4],inhibition of Aβ oligomer formation,[1],most potent
Ac-DArg-DLys-DLeu-DMet-DGln-DPro-DThr-DArg-DAsn-NH2 (Ac-[dR][dK][dL][dM][dQ][dP][dT][dR][dN]-NH2; SMILES CSCC[C@@H](NC(=O)[C@@H](CC(C)C)NC(=O)[C@@H](CCCCN)NC(=O)[C@@H](CCCNC(=N)N)NC(C)=O)C(=O)N[C@H](CCC(N)=O)C(=O)N1CCC[C@@H]1C(=O)N[C@@H](C(=O)N[C@H](CCCNC(=N)N)C(=O)N[C@H](CC(N)=O)C(N)=O)[C@H](C)O) [MP6],cell viability following treatment with human Aβ42,[2],significantly increased
Ac-Thr-Arg-Thr-Pro-Gln-Met-Leu-Arg-Lys-NH2 (Ac-TRTPQMLRK-NH2) [MP5],cell viability following treatment with human Aβ42,[2],significantly increased
same,inhibition of Aβ oligomer formation,[1],most potent
human Aβ1-42: beta amyloid peptide used as toxic agent in the cell viability assays [reference compound],reduction of cell viability,"[3]; human Aβ1-42 40 μM alone, 4 days",≤ 35%
"H-TNPNRRNRTPQMLKR-OH [15merTNP, Thr-Asn-Pro-Asn-Arg-Arg-Asn-Arg-Thr-Pro-Gln-Met-Leu-Lys-Arg, reference compound]",reduction of human Aβ1-42's H2O2 production,[4],around 30%
same,reduction of cell death associated with human Aβ1-42,[3]; 80 μM peptide,20%
same,reduction of cell death associated with human Aβ1-42,[3]; 200 μM peptide,30%
same,Stability in rat brain homogenate (in vitro half-life),[5],<45 min
same,half-life at 2.5 mmol per ml,"[5]; rat, fresh 10% brain homogenate",< 45 min
same,crossing of the blood brain barrier,[6],poorly
same,ability to modify Aβ1-42's SOD-like activity,[7],possessed the ability to modify Aβ1-42's SOD-like activity
